Test results reported in US20040063729A1, “Triazolopyrimidines” (priority 2000, published 2004).

Test system: Kidney beans (variety:Serina)
Test: Phytotoxicity tested at the same time in the foliar spray test
Assay type: in vivo
Conditions: active compound concentration of 500 ppm; foliar spray on kidney beans
Method: Kidney beans (variety:Serina) were cultivated in plastic pots each having a diameter of 6 cm. The previously prepared solution of the prescribed concentration of active compound was sprayed over the plants in the 1 leaf stage at a rate of 20 ml per pot. One day after spraying, a gel obtained by mixing a suspension of spores of artificially cultured Botrytis cinera and PDA medium was added dropwise to the removed first leaf for infection in a plastic box having a size of 20 while maintaining humidity. 5 days after the inoculation, the infection rate per pot was classified and evaluated according to the following standard, and the control value (%) was calculated. Phytotoxicity was tested at the same time. This test is an average of the results of 3 replications. The evaluation of the infection rate and the calculation method of the control value were conducted as follows: […]

Structure (SMILES) | Phytotoxicity
Fc1ccc(Cc2c(Cl)nc3ncnn3c2Cl)c(F)c1F [I-6] | No phytotoxicity
Fc1ccc(F)c(Cc2c(Cl)nc3ncnn3c2Cl)c1F [I-11] | No phytotoxicity
Fc1cc(F)c(Cc2c(Cl)nc3ncnn3c2Cl)cc1F [I-18] | No phytotoxicity
Fc1cc(F)c(Cc2c(Cl)nc3ncnn3c2Cl)c(F)c1 [I-20] | No phytotoxicity
FC(F)(F)c1cccc(Cc2c(Cl)nc3ncnn3c2Cl)c1 [I-73] | No phytotoxicity
Cc1cccc(Cc2c(Cl)nc3ncnn3c2Cl)c1 [I-75] | No phytotoxicity
Clc1cccc(Cc2c(Cl)nc3ncnn3c2Cl)c1 [I-76] | No phytotoxicity
Cc1ccc(Cc2c(Cl)nc3ncnn3c2Cl)cc1 [I-94] | No phytotoxicity
Clc1ccc(Cc2c(Cl)nc3ncnn3c2Cl)cc1 [I-95, 5,7-dichloro-6-(4-chlorobenzyl)[1,2,4]triazolo[1,5-a]pyrimidine] | No phytotoxicity
FC(F)(F)Oc1ccc(Cc2c(Cl)nc3ncnn3c2Cl)cc1 [I-104] | No phytotoxicity
Clc1nc2ncnn2c(Cl)c1Cc1ccccc1 [I-110] | No phytotoxicity
CC(c1ccccc1)c1c(Cl)nc2ncnn2c1Cl (stereo not shown) [I-112] | No phytotoxicity
Clc1cccc(Cc2cnc3ncnn3c2Cl)c1Cl [I-142] | No phytotoxicity
Clc1ccc(Cc2cnc3ncnn3c2Cl)cc1Cl [I-146] | No phytotoxicity

Test system: not given
Test: not given
Conditions: not given

melting point [°C] | Structure (SMILES)
165 to 167 | Clc1ccc(Cc2c(Cl)nc3ncnn3c2Cl)cc1 [I-95, 5,7-dichloro-6-(4-chlorobenzyl)[1,2,4]triazolo[1,5-a]pyrimidine]
123 to 127 | Clc1c(Cc2ccccc2)cnc2ncnn12 [I-111, 6-benzyl-7-chloro[1,2,4]triazolo[1,5-a]pyrimidine]
